Results taken from PubChem BioAssay AID179 (DTP/NCI, 2004).
Active and inactive are the calls of the source.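 The calls were made as follows: active = compounds giving half or more protection of infected cells from virus-caused growth loss, again on retest; inactive = the rest.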

System: CEM cells HIV-1 protection, formazan growth assay
Assay: NCI AIDS Antiviral Assay
Conditions: for IC50: measured here: growth of uninfected CEM cells
How it was run: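 Human CEM cells, uninfected and HIV-1-infected, received five drug concentrations, and growth was read by soluble formazan assay. Compounds giving at least 50% protection were retested; reproducible 100% protection defined confirmed active.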

| Structure (SMILES) | EC50 [µM] | IC50 [µM] | outcome |
| --- | --- | --- | --- |
| Cc1ccc(S(=O)(=O)n2cc(C=O)c(-c3cn(S(=O)(=O)c4ccc(C)cc4)cc3-c3cn(S(=O)(=O)c4ccc(C)cc4)cc3C=O)c2)cc1 | > 200 | 19.5 | – |
| CN1[C@H]2C=CC(=O)[C@]1(Cl)[C@H]1C(=O)N(c3ccccc3)C(=O)[C@@H]21 | > 162 | 3.89 | – |
| NC(=O)c1cn(C2OC(CO)C(O)C2O)c(=O)[nH]c1=O (centres undefined) | > 871 | > 871 | – |
| Cc1c(OCc2cccc3ccccc23)ccc2c(=O)cc(S)oc12 | > 200 | 93.3 | – |
| O=C(Cc1nc2ccccc2o1)C(=O)Nc1ccc(Cl)cc1Cl | > 7.76 | > 7.76 | – |
| Cc1ccc(SSCCN)cc1 | > 200 | 11.7 | – |
| Cc1ccc2ccc(=O)oc2c1 | > 309 | > 309 | – |
| COc1ccc(OC)c(/C=C/[N+](=O)[O-])c1 | > 200 | 2.95 | – |
| CCCCCSP(=S)(C(C)C)C(C)C | > 200 | 115 | – |
| NNC1=Nc2ccccc2N=C2CCSCC21 (centres undefined) | > 200 | 178 | – |
| COc1cccc(N2C(=O)C3c4[nH]c5ccc(C)cc5c4C4CCC(C)CC4C3C2=O)c1 (centres undefined) | > 100 | > 100 | – |
| O=c1cc(-c2ccccc2)oc2ccc(O)cc12 | > 200 | 67.6 | – |
| CC(C)C1CC(CO)(CNc2nc(N)nc(Cl)c2/C=N\O)C1 (centres undefined) | > 20 | 0.0331 | – |
| Cc1c(CCO)c(=O)n2c([nH]c3ccccc32)c1C#N | > 107 | 85.1 | – |
| Cc1ccc2nc(C(C)C)c(=O)[nH]c2c1 | > 200 | > 200 | – |
| CC(CC(=O)Nc1ccc(NC(=O)CC(C)N=NC(N)=O)cc1)N=NC(N)=O (centres undefined) | > 129 | > 129 | – |
| O=C(CCC(NC(=O)OCc1ccccc1)C(=O)OCc1ccccc1)Nc1cccc(OCc2ccccc2)c1 (centres undefined) | > 200 | 35.5 | – |
| CC1=Cc2cc3[n-]c(cc4nc(cc5[n-]c(cc1n2)cc5C)C(C)=C4CCC(=O)O)c(CCC(=O)O)c3C.[Pd+2] | > 11.7 | 1.02 | – |
| CC(C)CC1NC(=O)CCC(NC(=O)C(Cc2ccc(O)cc2)NC(=O)OCc2ccccc2)C(=O)NC(Cc2ccccc2)C(=O)NC(Cc2ccccc2)NC1=O (centres undefined) | > 200 | > 200 | – |
| N#CNc1nc(C(=O)Nc2ccc(Cl)cc2)cc(-c2ccccc2)n1 | > 355 | > 355 | – |
| Nc1ccc(C(=O)Nc2ccccc2N)cc1 | > 1100 | 3.8 | – |
| CCCC=NCCOC(=S)[S-].CCCC=NCCOC(=S)[S-].[Zn+2] | > 100 | 56.2 | – |
| Cc1cc(=O)oc2c(O)c(O)ccc12 | > 263 | 141 | – |
| CC(=O)NC(=O)NC1=NCCC(=O)N1CCc1c[nH]c2ccccc12 | > 200 | > 200 | – |
| COc1ccc(N=C(CS(=O)c2ccc(C)cc2)C(F)(F)F)cc1 (centres undefined) | > 200 | 91.2 | – |
| Oc1ccc(/C=C/c2cc(O)cc3c2C(c2cc(O)cc4c2C(c2cc(O)cc(O)c2)C(c2ccc(O)cc2)O4)C(c2ccc(O)cc2)O3)cc1 (centres undefined) | > 20.9 | 10.5 | – |
| Cc1cc(-c2ccc(N=Nc3c(S(=O)(=O)O)cc4cc(S(=O)(=O)O)cc(N)c4c3O)c(C)c2)ccc1N=Nc1cc(S(=O)(=O)O)c2ccccc2c1O | – | – | inactive |
| CCOC(=O)C12OC(OCC)(CC1(OCC)OCC)C1(CC1)C2=O (centres undefined) | > 200 | > 200 | – |
| Cc1ccc(N2C(=O)/C(=c3\s/c(=C(/N)O)c(=N)n3-c3ccccc3)SC2=S)cc1 | > 4.57 | > 4.57 | – |
| N#C/C(=C/NC(=S)NCc1ccccc1)C(N)=O | > 200 | > 200 | – |
